Molecules are shown by their SMILES.

These results are taken from patent US4663326A, “Pyrazolo[4,3-d]pyrimidine-5,7-(4H,6H)dione or -5-thione-7-one analogs” (Warner-Lambert Company, priority 1985, dated 1987).

The test system of assay [1] is pentobarbital-anesthetized dog. Kind of assay: In vivo myocardial inotropic activity in anesthetized dog (CVAD). Also on record: species or system dog (adult mongrel). The following applies: for Percent Change Heart Rate / Percent Change Myocardial Contractility / Percent Change Blood Pressure (second value) / Percent Change Blood Pressure (first value): intravenous; for Percent Change Blood Pressure (second value): value after the slash; for Percent Change Blood Pressure (first value): value before the slash. The protocol: This test procedure is described in the following paragraphs.
This screen consists of determining the effects of increasing intravenous doses of compound on mycardial contractility (dP/dt max of left ventricular blood pressure), heart rate, and aortic blood pressure of the pentobarbital-anesthetized dog.
Adult mongrel dogs of either sex are anesthetized with pentobarbital, 35 mg/kg, IV, and are subsequently maintained under anesthesia with a continuous infusion of pentobarbital, 3.5 mg/kg/hour. The trachea is intubated but the animals are permitted to breathe spontaneously. A cannula is inserted into the femoral vein for administrating test agents. A Millar catheter tip pressure transducer or a fluid filled catheter is inserted into the ascending aorta via the femoral artery for measuring aortic blood pressure. A Millar catheter tip pressure transducer is passed into the left ventricle via the left carotid artery for measuring left ventricular blood pressure. Needle electrodes are placed subcutaneously for recording a lead II electrocardiogram (ECG).
Left ventricular and aortic blood pressures are recorded on a strip chart recorder. Heart rate, using a biotachometer triggered from the R wave of the ECG, and the first derivative of left ventricular blood pressure (dP/dt), obtained with a differentiator amplifier coupled to the corresponding pressure amplifier, are also recorded. A period of at least 30 minutes is utilized to obtain control data prior to administration of test compound.
Depending on solubility, the compounds are dissolved in 0.9% saline solution or in dilute HCl or NaOH (0.1 to 1.0N) and are diluted to volume with normal saline. Ethanol or dimethylacetamide can be used as solvents if adequate dilutions can be made. Appropriate vehicle controls are administered when needed.
Each dose of the test compound is administered in a volume of […] over a period of one minute.

Another assay has as its system Type 1 Phosphodiesterase. Kind of assay: PDE inhibition, Type 1 phosphodiesterase, smooth muscle (bovine coronary arteries). The format is biochemical. The following applies: 1 × 10^-5 M. From the text:
The method of Thompson, et al (Thompson, W. J., Terasaki, W. L., Epstein, P. M., Strada, S. J., Adv. Cyclic Nucleotide Res., 10:69-92, 1979), with minor modifications, was used to isolate phosphodiesterases from vascular smooth muscle. Bovine coronary arteries (right, anterior descending, and left circumflex arteries) from hearts obtained from a local slaughterhouse were used for these studies. Arteries from two hearts were used for each isolation. Hearts were kept on ice and the arteries were dissected within two hours after the animals were sacrificed. After removing all fat and connective tissue, the arteries were everted, cut into cubes with a single edge razor blade and homogenized with a Brinkman Polytron three times at a rheostat setting of 10.0 in four volumes of the PDE isolation buffer (10 mM Tris-HCl/pH 7.5, 2 mM MgCl2, and 1 mM dithiothreitol). The resulting homogenate was sonicated (30 sec/ml homogenate) and then centrifuged at 30,000×g for 20 minutes. This and all subsequent procedures were performed at 4° C. The resulting supernatant was filtered through four layers of gauze, and applied to a DEAE-cellulose column (30×1.5 cm), prepared as described by Cheung (Cheung, W. Y., Biochim. Biopphys. Acta, 191:303-315, 1969), and equilibrated with freshly prepared 70 mM sodium acetate/5 mM 2-mercaptoethanol (pH 6.5). The column was then washed with 2-3 bed volumes of sodium acetate/2-mercaptoethanol, after which the phosphodiesterases were eluted from the column using a continuous 70-1,000 mM sodium acetate gradient (pH 6.5, containing 5 mM 2-mercaptoethanol; total volume 400 ml). The flow rate was approximately equal to 25 ml/hr. Eight ml fractions were collected and assayed for cyclic AMP- and cyclic GMP-phosphodiesterase activity in the presence and absence of 0.1 units of calmodulin and 10 mM CaCl2. Appropriate fractions were pooled and dialyzed against 70 mM sodium acetate/5 mM 2-mercaptoethanol for 20 hours.
Following complete separation, the combined phosphodiesterase fractions were concentrated to 14% of the original volume using an Amicon ultrafiltration cell fitted with a UM-10 membrane, according to the method of Wells, et al (Wells, J. N., Baird, C. E., Wu, Y. J., Hardman, J. G., Biochim. Biophys. Acta, 384:430-442, 1975). Following concentration, the protein was then diluted to 65% with ethylene glycol monoethyl ether, and stored at -20° C.
Phosphodiesterase activity was measured as described previously (Weishaar, P. E., Quade, M., Boyd, D., Schenden, J., Mark, S. S., Kaplan, H. R., Drug Devel. Res., 3:517-534, 1983), in a reaction medium containing 40 mM Tris-HCl (pH 8.0), 5 mM MgCl and 4 mM 2-mercaptoethanol. Unless otherwise noted, the concentration of substrate (^3 H-cyclic AMP or ^3 H-cyclic GMP) was 1.0 μM. […]

The subject of the next assay is Type 3 Phosphodiesterase. Briefly: PDE inhibition, Type 3 phosphodiesterase, smooth muscle (bovine coronary arteries). The format is biochemical. The following applies: 1 × 10^-5 M. From the text:
The method of Thompson, et al (Thompson, W. J., Terasaki, W. L., Epstein, P. M., Strada, S. J., Adv. Cyclic Nucleotide Res., 10:69-92, 1979), with minor modifications, was used to isolate phosphodiesterases from vascular smooth muscle. Bovine coronary arteries (right, anterior descending, and left circumflex arteries) from hearts obtained from a local slaughterhouse were used for these studies. Arteries from two hearts were used for each isolation. Hearts were kept on ice and the arteries were dissected within two hours after the animals were sacrificed. After removing all fat and connective tissue, the arteries were everted, cut into cubes with a single edge razor blade and homogenized with a Brinkman Polytron three times at a rheostat setting of 10.0 in four volumes of the PDE isolation buffer (10 mM Tris-HCl/pH 7.5, 2 mM MgCl2, and 1 mM dithiothreitol). The resulting homogenate was sonicated (30 sec/ml homogenate) and then centrifuged at 30,000×g for 20 minutes. This and all subsequent procedures were performed at 4° C. […]
Phosphodiesterase activity was measured as described previously (Weishaar, P. E., Quade, M., Boyd, D., Schenden, J., Mark, S. S., Kaplan, H. R., Drug Devel. Res., 3:517-534, 1983), in a reaction medium containing 40 mM Tris-HCl (pH 8.0), 5 mM MgCl and 4 mM 2-mercaptoethanol. […]

Where [2] appears, read: intravenously at about 0.01 to 0.31 mg/kg.

`Cc1nn(C)c2c(=O)[nH]c(=O)[nH]c12` [Example 1, 1,3-Dimethylpyrazolo[4,3-d]pyrimidine-5,7-(4H, 6H)dione]: in assay [1] (0.10 mg/kg), the “Percent Change Heart Rate” value is listed as 1%, the “Percent Change Myocardial Contractility” value stood at 5%, the “Percent Change Blood Pressure (second value)” value came out at 1% and the “Percent Change Blood Pressure (first value)” value came to 1%. Besides, in assay [1] (0.31 mg/kg), the “Percent Change Heart Rate” value was 1%, the “Percent Change Myocardial Contractility” value is reported as 13%, the “Percent Change Blood Pressure (second value)” value is on record as -1% and the “Percent Change Blood Pressure (first value)” value is reported as 1%. Further, in assay [1] (1.00 mg/kg), the “Percent Change Heart Rate” value amounted to 5%, the “Percent Change Myocardial Contractility” value is 41%, the “Percent Change Blood Pressure (second value)” value was -2% and the “Percent Change Blood Pressure (first value)” value turned out to be 0%. Besides, in assay [1] (3.10 mg/kg), the “Percent Change Heart Rate” value was found to be 15%, the “Percent Change Myocardial Contractility” value amounted to 90%, the “Percent Change Blood Pressure (second value)” value is recorded as -4% and the “Percent Change Blood Pressure (first value)” value is -2%. Also, in assay [1] (setting [2]), the “blood pressure (in words)” value is reported as “moderate reduction in blood pressure”, the “cardiac contractility (in words)” value is “dose related significant increases in cardiac contractility” and the “heart rate (in words)” value is listed as “only low or minimal changes in heart rate”. For the same compound, in the assay with Type 1 Phosphodiesterase, the “% Inhibition of 3H-cAMP Hydrolysis, Type 1 Phosphodiesterase” value is recorded as “N (0-20% inhibition at 1 × 10^-5 M)” and the “% Inhibition of 3H-cGMP Hydrolysis, Type 1 Phosphodiesterase” value is reported as “N (0-20% inhibition at 1 × 10^-5 M)”. Besides, the “% Inhibition of 3H-cAMP Hydrolysis, Type 3 Phosphodiesterase” value in the assay with Type 3 Phosphodiesterase is reported as “N (0-20% inhibition at 1 × 10^-5 M)”.

For the compound `CCn1nc(C)c2[nH]c(=S)[nH]c(=O)c21` [Example 2, 1-Ethyl-1,4,5,6-tetrahydro-3-methyl-pyrazolo[4,3-d]pyrimidine-5-thione-7-on], in assay [1] (0.10 mg/kg), the “Percent Change Heart Rate” value is given as 3%, the “Percent Change Myocardial Contractility” value is 5%, the “Percent Change Blood Pressure (second value)” value is on record as -1% and the “Percent Change Blood Pressure (first value)” value is reported as -1%. For the same compound, in assay [1] (0.30 mg/kg), the “Percent Change Heart Rate” value came out at 2%, the “Percent Change Myocardial Contractility” value came out at 8%, the “Percent Change Blood Pressure (second value)” value is -4% and the “Percent Change Blood Pressure (first value)” value is listed as -3%. In assay [1] (1.00 mg/kg), the “Percent Change Heart Rate” value is -1%, the “Percent Change Myocardial Contractility” value came to 13%, the “Percent Change Blood Pressure (second value)” value was -4% and the “Percent Change Blood Pressure (first value)” value is reported as -2%. Moreover, in assay [1] (3.10 mg/kg), the “Percent Change Heart Rate” value is 5%, the “Percent Change Myocardial Contractility” value is on record as 45%, the “Percent Change Blood Pressure (second value)” value is listed as -9% and the “Percent Change Blood Pressure (first value)” value is recorded as -6%. For the same compound, in the assay with Type 1 Phosphodiesterase, the “% Inhibition of 3H-cAMP Hydrolysis, Type 1 Phosphodiesterase” value was “N (0-20% inhibition at 1 × 10^-5 M)” and the “% Inhibition of 3H-cGMP Hydrolysis, Type 1 Phosphodiesterase” value is recorded as “N (0-20% inhibition at 1 × 10^-5 M)”. Besides, in the assay with Type 3 Phosphodiesterase, the “% Inhibition of 3H-cAMP Hydrolysis, Type 3 Phosphodiesterase” value was “B (36-55% inhibition at 1 × 10^-5 M)”.
